Patent US20030104945A1, “2,4-Diamino-1,3,5-triazines, their preparation, and their use as herbicides and plant growth regulators” (priority 2001, published 2003)

Legend:
Assay type in all cases: in vivo
[1] = tested on: harmful plants such as Sinapis alba, Echinochloa crus-galli, Lolium multiflorum, Stellaria media, Cyperus iria, Amaranthus retroflexus, Setaria viridus and …; assay: Post-emergence herbicidal action (greenhouse pot test); details: three-leaf stage, application rate of 1 kg and less of active substance per hectare, scored after approx. 3 to 4 weeks vs untreated controls
Experimental: Seeds or rhizome sections of monocotyledonous and dicotyledonous weeds are placed in sandy loam soil in plastic pots, covered with soil and grown in the greenhouse under good growth conditions. Three weeks after sowing, the experimental plants are treated at the three-leaf stage. The compounds according to the invention, which are formulated as wettable powders or as emulsion concentrates, are sprayed at various rates onto the green plant organs at an application rate of 600 to 800 l of water per ha (converted). After the experimental plants have remained in the greenhouse for approx. 3 to 4 weeks under optimal growth conditions, the effect of the compositions is scored visually in comparison with untreated controls. The substances according to the invention also have a good herbicidal action against a broad spectrum of economically important grass weeds and broad-leaved weeds when applied post-emergence.

[2] = tested on: harmful plants such as Stellaria media, Lolium multiflorum, Amaranthus retroflexus, Sinapis alba, Avena sativa and Setaria viridis; assay: Pre-emergence herbicidal action (greenhouse pot test); details: application rate of 1 kg or less active substance per hectare, scored after 3 to 4 weeks vs untreated controls
Description: Seeds and rhizome sections of monocotyledonous and dicotyledonous harmful plants are placed in sandy loam in plastic pots and covered with soil. The compounds according to the invention which are formulated in the form of wettable powders or emulsion concentrates at various rates, are then applied to the surface of the covering soil as aqueous suspension or emulsion at an application rate of 600 to 800 l of water per ha (converted).
After the treatment, the pots are placed in the greenhouse and kept under good growth conditions for the weeds. Visual scoring of the plant damage or the adverse effect on emergence is done after the test plants have emerged after an experimental period of 3 to 4 weeks in comparison with untreated controls.

[3] = tested on: harmful plants which are typical of rice crops such as, for example, Cyperus monti, Echinochloa crus-galli and Sagittaria pygmaea; assay: Activity against harmful plants in rice (paddy rice conditions); details: poured into paddy water at various dosages; scored about three weeks after application vs untreated controls; further: test concentration or dose not given here
Experimental: Transplanted and seeded rice and typical grass weeds and broad-leaved weeds in rice crops are grown in the greenhouse under paddy rice conditions (depth of the paddy water: 2-3 cm) in sealed plastic pots until they have reached the three-leaf stage (Echinochloa crus-galli 1.5-leaf). They are then treated with the compounds according to the invention. To this end, the formulated active substances are suspended, dissolved or emulsified in water and the product is poured into the paddy water of the test plants at various dosages. After the treatment has been carried out thus, the test plants are placed in the greenhouse under optimal growth conditions and kept like this over the entire experimental period.
About three weeks after application, the evaluation is carried out by is of visually scoring the plant damage in comparison with untreated controls.

CC(C)c1nc(N)nc(NC(C2CC2)[C@@H]2C[C@H]2c2ccccc2)n1 (relative stereo) [Example 3-2]
very good herbicidal activity: herbicidal activity, visual scoring [1] | herbicidal activity, visual scoring of plant damage or adverse effect on emergence [2] | herbicidal activity, visual scoring of plant damage [3]

CCC(F)c1nc(N)nc(NC(CC)[C@@H]2C[C@H]2c2ccccc2)n1 (relative stereo) [Example 2-8]
very good herbicidal activity: herbicidal activity, visual scoring [1] | herbicidal activity, visual scoring of plant damage or adverse effect on emergence [2] | herbicidal activity, visual scoring of plant damage [3]
